{"source": "patent US20180291378A1", "about": "“METHODS AND COMPOSITIONS FOR PROMOTING HAIR GROWTH” (THE TRUSTEES OF COLUMBIA UNIVERSITY IN THE CITY OF NEW YORK, priority 2015, published 2018)", "molecules": {"B1": {"name": "OSM: oncostatin M, secreted cytokine of the IL-6 family; recombinant mouse OSM used at 20 ng/ml (protein, UniProt P53347 25-206, looked up)", "Oncostatin-M": "NRGCSNSSSQLLSQLQNQANLTGNTESLLEPYIRLQNLNTPDLRAACTQHSVAFPSEDTLRQLSKPHFLSTVYTTLDRVLYQLDALRQKFLKTPAFPKLDSARHNILGIRNNVFCMARLLNHSLEIPEPTQTDSGASRSTTTPDVFNTKIGSCGFLWGYHRFMGSVGRVFREWDDGSTRSRR"}}, "key": {"[1]": {"system": "C57/B6 mice in telogen", "assay": "Anagen induction by topical treatment of shaved wildtype mice in telogen", "format": "in vivo, mouse", "conditions": "for days of treatment until treated follicles re-initiate anagen: 7 week old mice, treated for 24 days; for mice displaying skin darkening and hair growth within 10 days of starting treatment: 8.5 week old mice treated for 5 days", "description": "It was hypothesized that inhibition of JAK-STAT signaling promotes entry into the hair cycle in mice. To determine the onset of anagen, backskin hairs were trimmed with an electric shaver, and entry of HF into anagen was observed by the appearance of darkening skin and by hair regrowth. For the hair cycle experiments described in FIG. 1A, biopsies were taken from 2 mice/time point, and the experiment was replicated on 3 sets of littermates. For the experiments described in supp. FIGS. 1C&D, 3-4 mice were used per group (7 week vs. 8.5 week), and the experiment was replicated 3 times. […] The experiment presented in FIG. 1E was independently replicated once, with 3 mice/condition. The experiments described in FIG. 2A, 3 mice/genotype were utilized, and the experiment was replicated in 2 sets of littermates.\nRuxolitinib (INCB018424) was purchased from ChemieTek (catalog number CT-INCB). […] Hedgehog agonist (SAG) was purchased from EMD Millipore (catalog number 566660). JAK-STAT inhibitors were dissolved in DMSO and used at 2-3% for in vivo experiments, as indicated, and 400 nM for in vitro experiments. SAG was used at 120 uM, as described in Paladini et al (2)."}, "[2]": {"system": "human DP spheres gene expression", "assay": "DP spheres microarray / GEDI / gene set enrichment analysis", "format": "cell-based", "description": "For the DP spheres microarray analysis, cells were prepared from three different donors, and Affymetrix human HG-U133 PLUS 2.0 arrays were hybridized at the CUMC genomics facility. Quality control and data normalization was performed as described above. For the organ culture experiment, 3 sets of repeats were performed, each times using HF derived from a single individual.\nFor the DP spheres microarray analysis, total RNA was extracted from DP spheres cultured in DMSO, ruxolitinib or tofacitinib from each of the three donors using the Qiagen RNAeasy micro kit. The Ovation RNA Amplification kit (Nugen) was used to generate amplified cDNA for microarray analysis. LIMMA was used with a linear model treating both treatment and the blocking factor, donor, as fixed effects. Contrasts of interest between treatments were used to identify genes that were differentially expressed between pairs of treatments for the treatments DMSO, RUXO, and TOFA. A threshold of absolute fold change=1.5 and P<0.05 was employed. For GSEA, the HG_U133_Plus_2.0 chip annotation file downloaded from ftp.broad.mit.edullpub/gsedannotations/was used to annotate the Affymetrix ProbeSets and to remove duplicate ProbeSets for a given Gene Symbol. Duplicates were removed based on the maximum absolute fold-change observed for each Gene Symbol. Pre-ranked gene lists were generated for each treatment contrast of interest, using the moderated t-statistics returned by LIMMA. GSEA was performed on these lists to identify KEGG pathways overrepresented in each list (ES p-value 0.01).\nThe gene set enrichment analysis comparing tofacitinib-treated and control cells was performed by generating a list of all detected transcripts ranked by differential expression (p-value), and direction of fold change (up or down). This ranked list was tested for enrichment of the union of territories 2 and 4 (gene list provided in Table 3) as described previously (35). A null distribution for computing the normalized enrichment score (NES) and its associated p-value was obtained by label shuffling to randomize the gene rankings. These randomized sets were then used to compute null enrichment scores over 5000 iterations to generate a null distribution. The observed leading edge enrichment score was normalized to this distribution and a 2-tailed p-value was generated for this NES."}, "[3]": {"system": "human DP spheres", "assay": "Patch assay with dermal papilla spheres", "format": "in vivo", "conditions": "DP spheres treated at 400 nM", "description": "DP cells were grown in spheres as previously described (35). […] Each hanging drop contained 1000 cells, which aggregated to form DP spheroids after 24 hours. 48 hours after plating, 500 spheres in each condition were collected for use in the patch assay. Each experiment was performed with cells derived from a single individual, and four separate experiments were conducted. Keratinocytes were isolated from new born mice following the protocol outlined by Lichti et al (63). Cells were cultured in dkSFM for 2-4 days prior to being harvested for the patch assay. 1×10^6 newborn murine keratinocytes were then mixed together with 500 human DP spheres in each condition, and injected subdermally into dorsal skin of a nude mouse. 12 days after performing the injections, cysts had developed in the dermis, some which contained HF and hair fibers. These cysts were collected, photographed and then digested in 0.35% collagenase. The digested slurries were spread onto microscope slides and hair fiber counts were manually performed under a stereo microscope."}, "[4]": {"system": "OSM-Rβ", "assay": "OSM-Rβ expression in mouse skin treated in vivo during telogen", "conditions": "whole skin biopsies daily over 5 days of treatment"}, "[5]": {"system": "hair germ compartment (P-cad+)", "assay": "Hair germ proliferation (Ki67 / EdU) in treated mouse skin", "format": "in vivo", "protocol": "C57/B6 mice at 8.5 weeks of age were treated on half of the dorsal back with either topical vehicle control (left side) or JAK inhibitors (right side). Four hours post treatment each mouse received a single injection of 20 mg/kg 5-ethynyl-2′-deoxyuridine (EdU) (Invitrogen). One hour after injection, skin was harvested, fixed and stained using the Click-iT EdU Alexa Fluor 488 Imaging Kit (Life Technologies) per manufacturer's instructions, and co-stained for P-cadherin. Experiment was replicated once, with 1 mouse/time point."}, "[6]": {"system": "STAT3 and STAT5", "assay": "STAT3 and STAT5 activation in whole skin treated in vivo", "design": "species or system mouse"}, "[7]": {"system": "STAT1, STAT3 and STAT5", "assay": "OSM-induced STAT activation in cultured keratinocytes", "format": "cell-based, mouse"}, "[8]": {"system": "mouse keratinocytes", "assay": "Colony forming assay with mouse keratinocytes harvested at telogen", "format": "cell-based"}, "[9]": {"system": "whole skin gene expression", "assay": "Whole skin microarray / IPA pathway analysis after 4 days of treatment", "format": "in vivo, mouse", "conditions": "8.5-week-old mice", "description": "Gene expression profiling was performed on whole skin biopsies from 12 B6/C57 female mice, 8.5 weeks of age. Biopsies were taken from dorsal skin at day 0 (T0) of the experiment. […] Quality control was performed using the affy analysisQC package from http://arrayanalysis.org/. […] Data were normalized using the GCRMA method as implemented in affyAnalysisQC. LIMMA was used with a multilevel model to identify genes that were differentially expressed between samples at T5 and T0 for each treatment group (DMSO, RUXO, and TOFA) using a threshold of fold change=1.5 and P<0.05.\nTotal RNA was extracted using the Qiagen RNAeasy micro kit. The Ovation RNA Amplification kit (Nugen) was used to generate amplified cDNA for microarray analysis. Arrays used were Affymetrix mouse 430 2.0, hybridized at the CUMC microarray facility. qPCR analysis was performed on the ABI 7300 cycler. Primers sequences available in Table 2."}, "[10]": {"system": "human adult scalp hair follicles", "assay": "Human hair follicle organ culture assay", "format": "cell-based", "description": "Adult human follicles were microdissected from occipital skin under sterile conditions as previously described.\nMedia was replaced every 2 days, and images of individual follicles were taken every 2 days. Analysis of the growth rate of each follicle was performed using Image J."}, "[11]": {"system": "human fetal scalp skin grafts", "assay": "Human skin grafting assay on SCID mice", "format": "in vivo", "conditions": "daily topical application, 4 weeks", "protocol": "The mice were bandaged, and the grafts were left to recover for 6 weeks. […] Grafts were treated daily with topical application of vehicle control, ruxolitinib or tofacitinib. Treatment continued for 4 weeks, and pictures were taken every 3-5 days. Experiments were performed with skin from 3 separate donors. Quantification of hair growth was performed using ImageJ. Taking advantage of the fact that the donor hair was dark and the grafted mouse was white, the intensity of pigmentation was measured as a proxy for density of HF. Since control and experimental treatments were performed on the same graft, each image allows for the direct comparison between vehicle- and drug-treated skin. Darker regions are given a lower value than bright regions. Ratio was calculated by averaging the intensity values for the control treated side, by the intensity values for drug-treated side, accounting for pre-treatment differences in hair growth on the graft and for changes in hair density occurring over time."}, "[12]": {"system": "OSM-Rβ", "assay": "OSM-Rβ expression in cultured mouse keratinocytes", "format": "cell-based", "conditions": "recombinant mouse OSM at 20 ng/ml"}}, "data": [{"molecule": "N#CC[C@H](C1CCCC1)n1cc(-c2ncnc3[nH]ccc23)cn1", "note": "[ruxolitinib]", "values": [{"measurement": "days of treatment until treated follicles re-initiate anagen", "setting": "[1]", "result": "≤ 18", "unit": "days"}, {"measurement": "mice displaying skin darkening and hair growth within 10 days of starting treatment", "setting": "[1]", "result": "~90", "unit": "%"}]}, {"molecule": "C[C@@H]1CCN(C(=O)CC#N)C[C@@H]1N(C)c1ncnc2[nH]ccc12", "note": "[tofacitinib]", "values": [{"measurement": "expression of LEF1, WIF1 and CD133", "setting": "[2]", "result": "upregulate"}, {"measurement": "expression of TGβ2, BMP6 and LEF1", "setting": "[2]", "result": "upregulated"}, {"measurement": "gene set enrichment of territory T4", "setting": "[2]; treated vs untreated spheres", "result": "significantly enriched"}, {"measurement": "gene set enrichment of territory T2", "setting": "[2]; treated vs untreated spheres, overlap only marginally significant", "result": "enriched"}, {"measurement": "expression of FGFR1, ACVRL1, IGFR1, OSMR and PTGFR (region 1)", "setting": "[2]; vs control", "result": "repressed in both treatments but lower in tofacitinib treatment"}, {"measurement": "expression of members of the TGFβ pathway and the BMP pathway (regions 3 and 4)", "setting": "[2]; vs control", "result": "upregulated"}, {"measurement": "expression of pro-apoptotic genes BAX, BCL2L11 and CASP12 (region 2)", "setting": "[2]; vs control", "result": "downregulated"}, {"measurement": "key regulators of the WNT pathway (LEF1) and members of the NOTCH pathway", "setting": "[2]; vs control", "result": "overrepresented"}, {"measurement": "inductivity of DP spheres", "setting": "[3]", "result": "did enhance inductivity"}, {"measurement": "size and numbers of HFs induced", "setting": "[3]; with neonatal mouse keratinocytes in nude mice", "result": "larger and significantly greater numbers of HFs"}, {"measurement": "OSM-Rβ expression, qRT-PCR", "setting": "[4]", "result": "Downregulation"}, {"measurement": "Edu+ cells within the hair germ (P-cadherin+) compartment", "setting": "[5]; after three treatments, skin harvested 5 hours after treatment", "result": "clearly visible"}, {"measurement": "proliferation within the hair germ compartment (P-cad+)", "setting": "[5]; mice in telogen treated 4 days", "result": "Significant proliferation"}, {"measurement": "STAT3 and STAT5 activation", "setting": "[6]", "result": "effective inhibition"}, {"measurement": "effect on OSM-induced STAT1, STAT3 and STAT5 activation", "setting": "[7]; in vitro cultured keratinocytes", "result": "efficiently abrogated"}, {"measurement": "days of treatment until treated follicles re-initiate anagen", "setting": "[1]", "result": "≤ 21", "unit": "days"}, {"measurement": "mice displaying skin darkening and hair growth within 10 days of starting treatment", "setting": "[1]", "result": "~90", "unit": "%"}, {"measurement": "re-entry into the hair cycle", "setting": "[1]; topical, half of dorsal back, treated three weeks", "result": "rapid re-entry into the hair cycle, with kinetics similar to the Shh agonist"}, {"measurement": "effect on OSM growth inhibition", "setting": "[8]; added to OSM", "result": "reversed partially"}, {"measurement": "number of keratinocyte colonies", "setting": "[8]; drug alone", "result": "increase the number of keratinocyte colonies"}, {"measurement": "expression of hair cycle regulators Shh and Prom1", "setting": "[9]; T5 vs T0", "result": "significantly upregulated"}, {"measurement": "pathways enriched by only one of the drug treatments", "setting": "[9]; T5 vs T0", "result": "pathways involved in cell motility and migration, such as Rho and integrin signaling"}, {"measurement": "pathways enriched in both drug treatments (IPA)", "setting": "[9]; T5 vs T0, not in vehicle", "result": "melanogenesis and the Wnt pathway were enriched"}, {"measurement": "length of hair shafts / rate of hair elongation", "setting": "[10]; 400 nM, follicles from a single donor", "result": "significantly increased length of hair shafts"}, {"measurement": "growth rate of anagen, repeat experiment", "setting": "[10]; follicles from two individuals, did not reach statistical significance", "result": "increased the growth rate of anagen"}, {"measurement": "HF growth on graft compared to controls", "setting": "[11]", "result": "denser HF growth"}]}, {"molecule": "B1", "values": [{"measurement": "activation of STAT1, STAT3 and STAT5 transcription factors", "setting": "[7]; within 10 minutes of OSM treatment", "result": "activated"}, {"measurement": "expression of OSM-Rβ", "setting": "[12]", "result": "upregulated"}, {"measurement": "effect on keratinocyte colony growth", "setting": "[8]; OSM alone", "result": "growth inhibitory effect"}]}]}
